Measured values reported in patent US20230338539A1, “METHOD OF TREATING DIFFICULT TO ACCESS TUMORS WITH PHOTOACTIVATED CANCER THERAPY” (priority 2020, published 2023).

Key:
[1] = system: syngeneic 4T1-HER2 tumors; assay: In-vivo X-PACT trial on syngeneic tumors (FIG. 6); parameters: species or system BALB/c mice; details: psoralen (AMT) alone with x-ray, phosphors alone with x-ray; relative to in-vitro expectation
Method: There were 6-8 mice per arm, and the study was repeated a second time, yielding effective sample sizes of 12-16. […] In the separate psoralen and phosphor control arms (blue and red respectively), 5 μM psoralen (AMT) and 100 μg of phosphor where applied. A consistent x-ray irradiation technique was used for all arms (except saline control) which was 2 Gy delivered at 75 kVp by 30 mA in 3 minutes.

4T1-HER2 cells = details: multi-variable regression on 36 independent irradiation experiments
[2] = system: CT2A (murine malignant glioma); assay: UV light activated psoralen, Cell-Titer-Glo Luminescence Cell Viability Assay (FIG. 3A); type: cell-based; details: psoralen 40 μM; UV light 0, 0.25, 0.5, 1.0 J/cm^2
Method: (§1) Metabolic cell viability was also assessed visually using Methylene blue staining and ATP-induced Luminescence imaging (Cell-Titer-Glo® Luminescence Cell Viability Assay). The luminescence imaging permitted investigation of the cytotoxicity of psoralen activated directly with a UV lamp, and in the absence of phosphors and x-ray radiation. […] N=4 for each cell line at each UV light condition (0, 0.25, 0.5, 1.0 J/cm^2). The psoralen concentration was 40 μM.

KP158B (sarcoma) = assay: as above; type: cell-based, murine; details: psoralen 40 μM; UV light 0, 0.25, 0.5, 1.0 J/cm^2
Method: as §1

4T1 = assay: as above; type: cell-based, murine; details: psoralen 40 μM; UV light 0, 0.25, 0.5, 1.0 J/cm^2
Method: as §1

With `O=c1ccc2cc3ccoc3cc2o1` [psoralen] the “component effect in control arms” value [1] was “slightly higher component effect”, the “effect on cytotoxicity (Annexin V signal) of component alone” value (4T1-HER2 cells) was “neither psoralen nor phosphor alone had a strong effect on cytotoxicity” and the “effect of UV light activated psoralen on viable cells” value (shortened to “effect of UV light activated psoralen”) [2] was “reduce viable cells”. For the same compound, the “effect of UV light activated psoralen” value (KP158B (sarcoma)) was “reduce viable cells” and the “effect of UV light activated psoralen” value (4T1) was “reduce viable cells”.
